Reference: patent publication US20250017856A1, “CO-FORMULATION AND CO-DELIVERY OF IONIZABLE COLLOID FORMING DRUGS WITH NUCLEIC ACIDS” (THE GOVERNING COUNCIL OF THE UNIVERSITY OF TORONTO, priority 2023, published 2025)

Experiments:
[1] = RNA encapsulation efficiency (modified Quant-iT RiboGreen assay) and loading; assay type: physicochemical; settings: for Encapsulation efficiency (%) / Small molecule drug mass % / siRNA mass %: FxNP; for siRNA encapsulation (in words): drugs that were not colloid formers
Text: (§1) [NT] antisense (SEQ ID NO: 2): [NT] where “d” denotes a DNA base), siFLuc-2 (sense (SEQ ID NO: 3): [NT] antisense (SEQ ID NO: 4): [NT] where “d” denotes a DNA base and “m” indicates a 2'-O-methyl RNA base), sinLuc (sense (SEQ ID NO: 5): [NT] antisense SEQ ID NO: 6): [NT] where “d” denotes a DNA base), […]1 (sense (SEQ ID NO: 7): [NT] antisense (SEQ ID NO: 8): [NT] where “d” denotes a DNA base and “m” indicates a 2'-O-methyl RNA base), siNT (sense (SEQ ID NO: 9): [NT] antisense (SEQ ID NO: 10): [NT] where “d” denotes a DNA base and “m” indicates a 2'-O-methyl RNA base), mFLuc (EZ Cap Firefly Luciferase mRNA (5-moUTP), ApexBio), rRNA or RNA from Torula utilis yeast (T.U. RNA) was diluted in citrate buffer (50 or 25 mM, pH 4), malate buffer (25 mM, pH 4.0) or acetate buffer (25 mM, pH 4.0). A lipid/drug mix concentration of 5.5 mM was used with a total flow rate of 9 mL/min at a 3:1 ratio of aqueous to organic phase. […] After formulation, buffer exchange into PBS or Tris-buffered saline (TBS; pH 8.5) was performed using Amicon Ultra-4 centrifugal filters (molecular weight cut-off 10 kDa). Hydrodynamic diameter, polydispersity index (PDI), and scattering intensity were measured by dynamic light scattering (DLS) using a DynaPro Plate Reader II (Wyatt Technologies). The instrument was configured with a 60 mW 830 nm laser and a detector angle of 158°. A 25 μL sample of each formulation was pipetted into each well of a 384-well plate and measured with 20 acquisitions per sample at 25° C. […] Quant-iT RiboGreen reagent was added, and fluorescence intensity was quantified using a Tecan Infinite […] plate reader.

[2] = Hydrodynamic diameter and polydispersity index by dynamic light scattering; assay type: physicochemical; settings: FxNP
Text: as §1

[3] = Zeta potential (Malvern Zetasizer); assay type: physicochemical; settings: FxNP
Procedure: Zeta potential was measured by diluting FXNPs in phosphate to an ion concentration of 1 mM and using a Malvern Zetasizer Nano ZS instrument.

[4] = ionizable compound (fulvestrant analog); cited from earlier work

Compound	Encapsulation efficiency (%) ([1]; siFLuc, DSPC)	Small molecule drug mass % ([1]; siFLuc, DSPC) [%]	siRNA mass % ([1]; siFLuc, DSPC) [%]	Hydrodynamic diameter (nm) ([2]; siFLuc, DSPC)	PDI ([2]; siFLuc, DSPC)	Zeta potential (mV) ([3]; siFLuc, DSPC)	pKa [4]	siRNA encapsulation (in words) [1]	other results
CN(C)CCC(=O)N=S(=O)(CCCCCCCCCC1Cc2cc(O)ccc2C2CCC3(C)C(O)CCC3C12)CCCC(F)(F)C(F)(F)F (stereo not drawn) [7k]	80.2	55.1	4.2	426.9	0.060	−8.53	7.8		
CN(C)CC(=O)N=S(=O)(CCCCCCCCCC1Cc2cc(O)ccc2C2CCC3(C)C(O)CCC3C12)CCCC(F)(F)C(F)(F)F (stereo not drawn) [7f]	94.8	54.2	4.9	147.8	0.075	−10.01	7.0		Encapsulation efficiency (%) ([1]; siFLuc, DOPC): 91.3%; Small molecule drug mass % ([1]; siFLuc, DOPC): 54.3%; siRNA mass % ([1]; siFLuc, DOPC): 4.8%; Encapsulation efficiency (%) ([1]; sinLuc, DOPC): 92.4%; Small molecule drug mass % ([1]; sinLuc, DOPC): 54.3%; siRNA mass % ([1]; sinLuc, DOPC): 4.8%; nanoparticle formation with RNA cargos of varying molecular weight ([1]; siRNA, T.U. RNA, rRNA, mRNA): form nanoparticles encapsulating a range of RNA cargos; Hydrodynamic diameter (nm) ([2]; siFLuc, DOPC): 155.5 nm; PDI ([2]; siFLuc, DOPC): 0.041; Hydrodynamic diameter (nm) ([2]; sinLuc, DOPC): 161.0 nm; PDI ([2]; sinLuc, DOPC): 0.039; Zeta potential (mV) ([3]; siFLuc, DOPC): −5.09 mV; Zeta potential (mV) ([3]; sinLuc, DOPC): −3.97 mV
CN(C)CCCN1c2ccccc2Sc2ccc(Cl)cc21 [chlorpromazine, reference compound]								did not encapsulate siRNA in nanoparticles or encapsulated siRNA at low efficiency	
CC12CCC3c4ccc(O)cc4CC(CCCCCCCCCS(=O)(CCCC(F)(F)C(F)(F)F)=NC(=O)CN4CCCCC4)C3C1CCC2O (stereo not drawn) [7e]	90.8	55.7	4.6	132.6	0.041	−11.13	6.4		Encapsulation efficiency (%) ([1]; siFLuc, DOPC): 90.8%; Small molecule drug mass % ([1]; siFLuc, DOPC): 55.7%; siRNA mass % ([1]; siFLuc, DOPC): 4.6%; Encapsulation efficiency (%) ([1]; sinLuc, DOPC): 89.7%; Small molecule drug mass % ([1]; sinLuc, DOPC): 55.7%; siRNA mass % ([1]; sinLuc, DOPC): 4.5%; Hydrodynamic diameter (nm) ([2]; siFLuc, DOPC): 214.2 nm; PDI ([2]; siFLuc, DOPC): 0.068; Hydrodynamic diameter (nm) ([2]; sinLuc, DOPC): 215.1 nm; PDI ([2]; sinLuc, DOPC): 0.066; Zeta potential (mV) ([3]; siFLuc, DOPC): −2.88 mV; Zeta potential (mV) ([3]; sinLuc, DOPC): −7.23 mV
CC12CCC3c4ccc(O)cc4CC(CCCCCCCCCS(=O)(CCCC(F)(F)C(F)(F)F)=NC(=O)CN4CCCC4)C3C1CCC2O (stereo not drawn) [7h]	86.4	55.3	4.4	160.5	0.183	−7.54	7.3		
CC[C@H]1CN2CCc3cc(OC)c(OC)cc3[C@@H]2C[C@@H]1C[C@H]1NCCc2cc(OC)c(OC)cc21 [emetine, reference compound]								did not encapsulate siRNA in nanoparticles or encapsulated siRNA at low efficiency	
CNCCC=C1c2ccccc2CCc2ccccc21 [nortriptyline, reference compound]								did not encapsulate siRNA in nanoparticles or encapsulated siRNA at low efficiency	
CN[C@H]1CC[C@@H](c2ccc(Cl)c(Cl)c2)c2ccccc21 [sertraline, reference compound]								did not encapsulate siRNA in nanoparticles or encapsulated siRNA at low efficiency	
